Reference: patent US8252764B2, “Compositions and methods of use of targeting peptides against placenta and adipose tissues” (priority 2000, dated 2012)
Peptide text beside a SMILES is read from it.

What was measured:
Aminopeptidase A (APA) = molecular target: T1, Aminopeptidase A (APA) (Homo sapiens, UniProt Q07075); assay: APA enzyme assay; assay type: biochemical
T1 construct: transfected with an expression vector encoding full-length APA cDNA; expressed in transfected cells; host or cells: SK-RC-49 renal carcinoma cells, stably transfected (SK-RC-49/APA)
T1 sequence (Q07075 whole entry): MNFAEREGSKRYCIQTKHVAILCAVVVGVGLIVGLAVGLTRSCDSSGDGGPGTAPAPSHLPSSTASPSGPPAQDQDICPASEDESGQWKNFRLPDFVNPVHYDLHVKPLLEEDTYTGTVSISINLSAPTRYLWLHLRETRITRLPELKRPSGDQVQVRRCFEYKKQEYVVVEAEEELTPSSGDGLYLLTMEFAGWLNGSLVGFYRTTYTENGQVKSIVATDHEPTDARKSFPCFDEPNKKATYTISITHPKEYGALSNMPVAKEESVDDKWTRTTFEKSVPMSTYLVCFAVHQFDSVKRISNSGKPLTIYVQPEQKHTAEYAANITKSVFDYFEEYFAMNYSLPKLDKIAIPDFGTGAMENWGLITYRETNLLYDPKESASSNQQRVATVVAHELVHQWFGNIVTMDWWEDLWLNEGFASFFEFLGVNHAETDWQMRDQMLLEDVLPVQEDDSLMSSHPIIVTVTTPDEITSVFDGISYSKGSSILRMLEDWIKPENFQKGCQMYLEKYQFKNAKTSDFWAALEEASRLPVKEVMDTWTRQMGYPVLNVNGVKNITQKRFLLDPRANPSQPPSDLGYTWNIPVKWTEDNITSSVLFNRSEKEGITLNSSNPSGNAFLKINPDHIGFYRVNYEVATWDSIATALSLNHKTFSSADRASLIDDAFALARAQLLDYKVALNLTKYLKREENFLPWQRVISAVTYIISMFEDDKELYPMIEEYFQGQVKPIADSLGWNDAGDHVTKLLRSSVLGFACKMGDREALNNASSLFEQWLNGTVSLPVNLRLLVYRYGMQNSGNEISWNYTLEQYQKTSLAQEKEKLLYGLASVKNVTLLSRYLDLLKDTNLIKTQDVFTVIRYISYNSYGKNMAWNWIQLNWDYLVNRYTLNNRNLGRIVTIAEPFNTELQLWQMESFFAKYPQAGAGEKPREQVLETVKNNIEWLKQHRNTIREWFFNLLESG

HUVECs [1] = assay: HUVEC cell growth assay (crystal violet); assay type: cell-based, human; details: 1 mM, VEGF-A (10 ng/ml)
Experimental: FIG. 34. […] (SEQ ID NO:56) inhibits HUVEC proliferation. Cells were stimulated with VEGF-A (10 ng/ml), and growth was evaluated at the indicated times by a colorimetric assay based on crystal violet staining. Error bars are the standard error of the means of triplicate wells. Each experiment was repeated at least twice with similar results.
HUVECs were seeded in 48-well plates (10^4 cells/well) and allowed to attach for 24 h in complete M199 medium. The cells were then starved in M199 medium containing 2% FCS for 24 h. […] (SEQ ID NO:56) or control […] (SEQ ID NO:57) peptide (1 mM) was added to the wells in medium containing 2% FCS and 10 ng/ml VEGF-A (R&D System, Abingdom, UK). After incubation for the indicated times, cells were fixed in 2.5% glutaraldehyde, stained with 0.1% crystal violet in 20% methanol, and solubilized in 10% acetic acid. All treatments were done in triplicate. Cell growth was evaluated by measuring the O.D. at 590 nm in a microplate reader (Bio-Rad Laboratories, Hercules, Calif.). A calibration curve was established and a linear correlation between O.D. and cell counts was observed between 10^3 and 10^5 cells.

[2] = test system: chicken chorioallantoic membrane (CAM); assay: CAM assay for angiogenesis; assay type: in vivo
Experimental: In vivo angiogenesis was evaluated by a CAM assay (Ribatti et al., 1994). Fertilized eggs from White Leghorn chickens were maintained in constant humidity at 37° C. On the third day of incubation, a square window was opened in the eggshell and 2-3 ml of albumen was removed to detach the developing CAM from the shell. The window was sealed with a glass plate of the same size and the eggs were returned to the incubator. At day 8, 1 mm^3 sterilized gelatin sponges (Gelfoam, Upjohn Co, Kalamazoo, […]) were adsorbed with VEGF-A (20 ng, R&D System) and either […] (SEQ ID NO:56) or control […] (SEQ ID NO:57) peptide (1 mM) in 3 μl PBS and implanted on the top of the growing CAMs under sterile conditions. CAMs were examined daily until day 12 and photographed in ovo with a Leica stereomicroscope. Capillaries emerging from the sponge were counted. The assay was repeated twice.

aminopeptidase N = aminopeptidase N (Homo sapiens, UniProt P15144); assay: Aminopeptidase N activity; assay type: biochemical; details: data not shown
Chain of aminopeptidase N (P15144 whole entry, species assumed): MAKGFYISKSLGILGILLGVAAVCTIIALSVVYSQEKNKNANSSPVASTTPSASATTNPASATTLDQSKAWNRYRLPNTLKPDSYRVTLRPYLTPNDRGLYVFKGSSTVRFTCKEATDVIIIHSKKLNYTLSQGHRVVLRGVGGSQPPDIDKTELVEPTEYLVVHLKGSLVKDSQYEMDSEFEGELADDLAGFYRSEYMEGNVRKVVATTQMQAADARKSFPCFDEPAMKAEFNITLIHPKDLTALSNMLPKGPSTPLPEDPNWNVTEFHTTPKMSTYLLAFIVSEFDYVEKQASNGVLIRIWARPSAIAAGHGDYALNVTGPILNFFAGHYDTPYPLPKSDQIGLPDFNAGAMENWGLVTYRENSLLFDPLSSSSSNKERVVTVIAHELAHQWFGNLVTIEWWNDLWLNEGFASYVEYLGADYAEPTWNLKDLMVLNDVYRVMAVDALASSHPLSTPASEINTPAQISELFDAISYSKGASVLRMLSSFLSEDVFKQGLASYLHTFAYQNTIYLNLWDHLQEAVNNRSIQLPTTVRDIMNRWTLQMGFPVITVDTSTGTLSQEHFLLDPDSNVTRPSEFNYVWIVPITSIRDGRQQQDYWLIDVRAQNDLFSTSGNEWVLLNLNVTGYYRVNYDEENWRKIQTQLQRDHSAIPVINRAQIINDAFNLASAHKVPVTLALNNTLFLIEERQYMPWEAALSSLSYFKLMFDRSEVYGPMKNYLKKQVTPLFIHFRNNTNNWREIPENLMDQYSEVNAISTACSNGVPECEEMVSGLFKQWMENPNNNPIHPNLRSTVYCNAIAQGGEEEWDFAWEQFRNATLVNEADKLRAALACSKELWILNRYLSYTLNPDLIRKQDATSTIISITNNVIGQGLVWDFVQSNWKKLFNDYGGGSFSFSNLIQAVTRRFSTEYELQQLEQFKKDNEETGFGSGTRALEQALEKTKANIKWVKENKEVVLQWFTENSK

HUVECs [3] = assay: HUVEC chemotaxis assay (Boyden chamber); assay type: cell-based, human; details: 1 mM, VEGF-A (10 ng/ml), Boyden chamber
Experimental: FIG. 33. […] (SEQ ID NO:56) inhibits HUVEC migration. HUVECs were stimulated with VEGF-A (10 ng/ml). The assay was performed in a Boyden microchemotaxis chamber, and cells were allowed to migrate through an 8-μm pore filter for 5 h at 37° C. […] (SEQ ID NO:57) (control) and […] (SEQ ID NO:56) peptides were tested at 1 mM concentration. Migrated cells were stained and five high-power fields (magnitude 100×) for each microwell were counted. Error bars are the standard error of the means of triplicate microwells.
A cell migration assay was performed in a 48-well microchemotaxis chamber (NeuroProbe, Gaithersburg, Md.) according to Bussolini et al. (1995). Polyvinylpyrrolidone-free polycarbonate filters (Nucleopore, Cambridge, Mass.) with 8-μm pores were coated with 1% gelatin for 10 min at room temperature and equilibrated in M199 medium supplemented with 2% FCS. […] (SEQ ID NO:56) or control […] (SEQ ID NO:57) peptide (1 mM) was placed in the lower compartment of a Boyden chamber in M199 medium supplemented with 2% FCS and 10 ng/ml VEGF-A (R&D System). Subconfluent cultures that had been starved overnight were harvested in PBS containing 2.5 mM EDTA, washed once in PBS, and resuspended in M199 medium containing 2% FCS at a final concentration of 2×10^6 cells/ml. […] Five random high-power fields (magnitude 100×) were counted in each well. […]

SK-RC-49/APA cells = assay: Phage binding specificity assay on SK-RC-49/APA cells; assay type: cell-based; details: soluble peptide
Experimental: The cell binding assay was performed with an input of 10^9 TU as described for the cell panning. The specificity was confirmed by adding […] (SEQ ID NO:56) peptide to the binding medium in increasing concentrations. For phage binding on immunocaptured APA, wells were blocked for 1 h at room temperature with PBS/3% BSA and incubated with 10^9 TU for 1 h at room temperature in 50 μl PBS/3% BSA. After eight washes in PBS/1% BSA/0.01% Tween-20 and two washes in PBS, phage were rescued by adding 200 μl of exponentially growing K91Kan E. coli. Each experiment was repeated at least three times.

HUVECs [4] = assay: Three-dimensional cell culture on Matrigel; assay type: cell-based, human; details: HUVECs on three-dimensional matrix gel, not shown
Experimental: Matrigel (Collaborative Research, Bedford, Mass.) was added at 100 μl per well to 48-well tissue culture plates and allowed to solidify for 10 min at 37° C. HUVECs were starved for 24 h in M199 medium supplemented with 2% FCS before being harvested in PBS containing 2.5 mM EDTA. 10^4 cells were gently added to each of the triplicate wells and allowed to adhere to the gel coating for 30 min at 37° C. Then, medium was replaced with indicated concentrations of […] (SEQ ID NO:56) or […] (SEQ ID NO:57) peptides in complete medium. The plates were photographed after 24 h with an inverted microscope (Canon). The assay was repeated three times.

CC[C@H](C)[C@H](NC(=O)[C@H](CO)NC(=O)[C@H](CCC(=O)O)NC(=O)[C@H](CS)NC(=O)[C@H](CCC(=O)O)NC(=O)[C@H](CCCNC(=N)N)NC(=O)[C@@H]1CCCN1C(=O)[C@@H](N)CS)C(=O)N[C@@H](CS)C(=O)O (H-CPRECESIC-OH)
IC50 (Aminopeptidase A (APA); SK-RC-49/APA cells, α-glutamyl-p-nitroanilide, 2 h at 37° C., read-out: IC50 for APA enzyme inhibition): 800 µM
reduction of APA enzyme activity (Aminopeptidase A (APA); at the highest concentration tested): 60%
inhibition of cell proliferation (HUVECs [1]): 50%
inhibition of neovascularization induced by VEGF-A ([2]; 1 mM, number of capillaries emerging from the sponge): 40%
BLOOD VESSEL NUMBERS ([2]; VEGF-A 20 ng, peptide 1 mM, mean and standard error, two experiments): 5.5 ± 1.41
effect on aminopeptidase N activity (aminopeptidase N): did not affect the activity
inhibition of chemotaxis of HUVECs (HUVECs [3]): 70%
effect on binding of CYNLCIRECESICGADGACWTWCADGCSRSC phage (SK-RC-49/APA cells; data not shown): displaced
competition with CPKVCPRECESNC phage for binding to SK-RC-49/APA cells (SK-RC-49/APA cells; not shown): competed
formation of capillary-like network (HUVECs [4]): progressive impairment of the formation of this network
